Results reported in US12433876B2, “Septin inhibitors for treatment of cancers” (UNIVERSITY OF ROCHESTER, priority 2019, dated 2025).

How the values were obtained:
septin-9 = experiment: Immunoblot of septin-9 expression; type: cell-based; conditions: 48 hours
PANC-1 cells = experiment: Live/Dead dye flow cytometry, PANC-1; type: cell-based, human; conditions: PANC-1, 3 μM
Description: (§1) Cell Lines, Cell Culture, and Reagents. PANC-1, BXPC-3 and CAPAN-1, SKOV-3, MCF7, MDA-MD-231 cells were obtained from ATCC and maintained in DMEM, RPMI-1640 and IMDM supplemented with 10% fetal calf serum penicillin (100 units/mL), and streptomycin (100 μg/mL) at 37° C. with 5% CO2 in a humidified incubator. JIMT-1 cells were purchased from AddexBio Inc, USA (catalog number: C0006005) and maintained in 10% FBS and antibiotic supplemented DMEM. […] The reaction was monitored using thin-layer chromatography plates with DCM-MeOH or pure ethyl acetate as eluent. Spots were monitored in a UV chamber. […] ICM scores for each compound and their poses were calculated and compared with FCF. […] Cell viability of PANC-1, BXPC-3 and CAPAN-1 pancreatic cancer cells treated with UR214-9 was measured using the Cell Titre96R Aqueous One Solution Cell Proliferation Assay (Promega Corp., catalog number: G3580) following the procedure published earlier. […] The cells were analyzed by a 305 flow cytometer and relative live and dead cell population was calculated by inputting equal number of cells in both vehicle and control group.

HER2 = experiment: Immunoblot of HER2 expression, pancreatic and breast cancer cells; type: cell-based
JIMT-1 cells = experiment: Live/Dead dye flow cytometry, JIMT-1; type: cell-based; conditions: JIMT-1, 3 μM, 48 hours, in vitro
Description: as §1

BXPC-3 cells = experiment: Live/Dead dye flow cytometry, BXPC-3; type: cell-based, human; conditions: BXPC-3, 3 μM, 48 hours
Description: as §1

septin-6 = septin-6 (Homo sapiens, UniProt Q14141); experiment: Confocal analysis of septin-6; type: cell-based; conditions: SKOV-3, 1 μM, 48 hours
Sequence of septin-6 (Q14141 whole entry): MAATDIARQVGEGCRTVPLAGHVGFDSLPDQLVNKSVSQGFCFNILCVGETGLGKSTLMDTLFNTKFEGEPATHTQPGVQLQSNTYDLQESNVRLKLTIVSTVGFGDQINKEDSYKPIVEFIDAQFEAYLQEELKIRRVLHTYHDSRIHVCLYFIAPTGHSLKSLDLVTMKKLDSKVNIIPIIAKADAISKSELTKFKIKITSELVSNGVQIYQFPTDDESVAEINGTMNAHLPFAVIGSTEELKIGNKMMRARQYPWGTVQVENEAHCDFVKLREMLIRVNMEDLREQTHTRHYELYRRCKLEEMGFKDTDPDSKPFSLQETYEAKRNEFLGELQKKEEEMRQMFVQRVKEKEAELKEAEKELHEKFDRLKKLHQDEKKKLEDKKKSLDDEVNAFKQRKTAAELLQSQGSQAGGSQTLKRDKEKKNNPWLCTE

Structure (SMILES): O=C(Nc1cc(Cl)nc(Cl)c1)Nc1cccc(SC(F)(F)F)c1F [UR214-9]
- septin-9 protein expression levels (western blot) (septin-9; MDA-MB-231, JIMT-1 and MCF-7 cells, 10 and 30 μM): does not alter the protein expression levels
- septin-9 expression (immunoblot) (septin-9; PANC-1, 1.0 and 10.0 μM): completely inhibited
- dead-cell population (PANC-1 cells): over 38%
- HER2 expression (HER2; MDA-MB-231, JIMT-1 and MCF-7 cells, 10 and 30 μM, 24 hours): reduced HER2 expression
- HER2 expression (HER2; PANC-1 (HER2+), 0.1, 1.0 and 10 μM, 72 hours): dose-dependent decrease in HER2 expression
- cell death (JIMT-1 cells): increased cell death
- dead cells (BXPC-3 cells): 29.4%
- septin-6 (confocal) (septin-6): decreased upon treatment
